Test results as given in patent publication US20180235934A1, “NORADRENERGIC DRUG TREATMENT OF OBSTRUCTIVE SLEEP APNEA” (Massachusetts Institute of Technology, priority 2015, published 2018).

Tests used:
[1] = tested on: urethane-anesthetized rats; assay: Hypoglossal nerve activity and hLTF under spontaneous REM sleep with episodic airway occlusion; assay type: in vivo, rat
Description: (§1) Recurrent obstructive apneas during spontaneous breathing in urethane-anesthetized rats were simulated by applying 10 or 12 episodes of airway occlusion at one episode per min.
(§2) All values are expressed as mean±SE.
Experiments were performed on 5 adult male rats (body weight 270-550 g) under urethane anesthesia, pancuronium paralysis and artificial ventilation. Unlike other anesthetics, urethane anesthesia retains the sleep-like alternations in brain state and in breathing pattern and chemosensitivity similar to those seen in natural sleep^58-59 (including state-dependent modulations of GG and abdominal respiratory-related activities^40), while also circumventing the highly fragmented natural sleep pattern in rodents^40. As shown in FIGS. 12A-12B, during periods of REM-like sleep (as indicated by increased hippocampal activity) hypoglossal nerve discharge was markedly depressed (by 44.8±9.1%, P<0.01). […] In addition, episodic end-expiratory airway occlusion (lasting 15 seconds each, 1 episode per minute; FIG. 12A, arrows) caused marked time-dependent increases in the amplitude of hypoglossal nerve discharge during each airway occlusion episode.

[2] = tested on: urethane-anesthetized rats; assay: Hypoglossal nerve activity and hLTF under carbachol (cholinergic)-induced REM sleep-like state with episodic airway occlusion; assay type: in vivo, rat
Excerpt: The EMGs were amplified (CyberAmp 380, Axon Instruments, Union City), integrated (time constant 0.1 s, MA821 RSP Moving Averager, CWE) and sampled at 10 KHz into a Dell PC with LabView software (National Instruments, Austin, Tex.).
A REM sleep-like state in urethane-anesthetized rats was induced by microinjection of the cholinergic agonist carbachol at unilateral dorsomedial pons^1,14 and was detected by the decrease of hypoglossal/GG EMG activity and the appearance of hippocampal theta discharge. The latter was recorded by using a parallel bipolar wire electrode inserted into the hippocampal CA1 region at the following stereotaxic coordinates: 3.7 mm caudal from Bregma, 2.2 mm lateral from midline, and depth of 2.4 mm from brain surface.
as §1, §2

[3] = tested on: urethane-anesthetized spontaneously breathing rats
Description: All experimental protocols were reviewed and approved by the responsible Committee on Animal Care in accordance with published guidelines. Experiments were performed on 45 male adult Sprague-Dawley rats (300-400 g, Charles River Laboratories, Wilmington, Mass.) under urethane anesthesia (initial dose 1.5 g/kg, i.p.; supplemental dose 1/10 of initial dose, i.p. or i.v. when necessary). The femoral vein and artery were cannulated for intravenous infusion and blood pressure monitoring, respectively. Rectal temperature was maintained at 36.5-37.5° C. with a thermostatic heating pad.
After sub-laryngeal tracheal cannulation with a Y-shaped tracheal cannula, two isolated silver wires (O.D. 0.127 mm) were implanted into the genioglossus and diaphragm for EMG recording. The wire tips were exposed for 1 mm and separated by approximately 5 mm once inserted into the muscle. In some rats, the medial branch of the hypoglossal nerve (which innervates the GG and other tongue protrusion muscles) and phrenic nerve (which innervates the diaphragm) were isolated and severed. After the rat was mounted onto the stereotaxic frame, the central end of the nerve was exposed from the back of the neck (dorsal approach) and mounted onto parallel bipolar wire electrodes for recording. These rats were artificially ventilated with oxygen-enriched (40% O2) medical air and paralyzed with pancuronium bromide.
The EMGs were amplified (CyberAmp 380, Axon Instruments, Union City), integrated (time constant 0.1 s, MA821 RSP Moving Averager, CWE) and sampled at 10 KHz into a Dell PC with LabView software (National Instruments, Austin, Tex.). The recordings were stabilized for at least 1 hour before any data collection and experimental manipulations were performed.
For brain microinjections, an occipital craniostomy was performed to expose the brain surface. A glass micropipette (tip O.D. 10-20 μm) filled with chemical solution was inserted to the target structure according to its stereotaxic coordinates. Injections (25-50 nl per injection) were performed by applying pressure pulses to the micropipette and confirmed by the movement of the intrapipette solution meniscus. All chemicals were purchased from Sigma-Aldrich (Sigma, St. Louis, Mo.) and dissolved in ACSF at concentration of 10 mM. Stereotaxic coordinates of the A7 region: 2.3-2.6 mm from midline, 0-0.5 mm rostral from interaural level, 8.0-8.5 mm from lambda surface; A5 region: 0-0.5 mm caudal from interaural level, 2.2-2.7 mm from midline, 9.5-10 mm from lambda surface; dorsomedial pons: 1-1.5 mm from midline, 0.2-0.7 mm rostral from interaural level, 7.5-8.5 mm from lambda surface.
Recurrent obstructive apneas during spontaneous breathing in urethane-anesthetized rats were simulated by applying 10 or 12 episodes of airway occlusion at one episode per min. Each episode of airway occlusion started from the end of an expiration (in spontaneous breathing rats as described in Tadjalli et al., J Neurosci 30, 16886-16895 (2010)^5) or lung deflation (in ventilated rats) and lasted 10-12 sec. […]
The amplitudes of the integrated genioglossus EMG (or hypoglossal nerve discharge) and integrated diaphragm EMG (or phrenic nerve discharge) recordings in each respiratory cycle were measured and normalized to the control baseline values. All values are expressed as mean±SE. […]

[4] = tested on: healthy subjects; settings: cited from earlier work
[5] = tested on: TH-cre transgenic Sprague-Dawley rats; assay: Episodic optogenetic stimulation of A7 neurons, HM activity and hLTF; settings: 0.5 mg/kg i.v.
[6] = clinically recommended dose range; cited from earlier work
[7] = tested on: urethane-anesthetized rats; assay: Hypoglossal amplitude and obstructive apnea-induced hLTF after yohimbine, focal at bilateral A7 and A5 regions or intravenous (no REM induction); assay type: in vivo, rat
Excerpt: Recurrent obstructive apneas during spontaneous breathing in urethane-anesthetized rats were simulated by applying 10 or 12 episodes of airway occlusion at one episode per min. […] All values are expressed as mean±SE.

[8] = injection at bilateral A7 region
[9] = intravenous 0.5 mg/kg, n=5, vs control n=12

CC1c2ccccc2CN1CC1=NCCN1 (stereo not shown) [BRL44408, 2-[2H-(1-Methyl-1,3-dihydroisoindole)methyl]-4,5-dihydroimidazole]
hypoglossal discharge (baseline) during spontaneous REM-like sleep ([1]; 0.2 mg/kg i.v., 5 rats): effectively restored the hypoglossal discharge to normal baseline level | hypoglossal activity before, during or after episodic airway occlusion ([1]; 0.2 mg/kg i.v., throughout spontaneous REM sleep): at or above normal baseline level

C[N+](C)(C)CCOC(N)=O [carbachol]
respiratory-related hypoglossal activity, decrease on transition to REM-like sleep ([2]; focal carbachol injection at pontine dorsomedial reticular formation, vagi-intact rats): ~39%

Clc1cccc(Cl)c1N=C1NCCN1 [clonidine]
tonic component of GG activity recruited during airway obstruction ([3]; application at bilateral A7 or A5 region): strongly suppressed | baseline genioglossus activity ([3]; injection at bilateral A5 region, n=6): not significantly reduced | facilitation of hypoglossal activity during airway occlusion [3, 8]: markedly attenuated | hypoglossal long-term facilitation [3, 8]: totally abolished | integrated genioglossus EMG amplitude, reduction from pre-injection baseline ([3]; injection at bilateral A7 region (~50 nl at 5 mM per site)): ~12%

CNCCCN1c2ccccc2CCc2ccccc21 [desipramine]
tonic component of GG activity ([4]; healthy subjects, non-REM sleep): increased the tonic component of GG activity | inspiratory-phasic component of GG activity ([4]; healthy subjects): failed to increase the inspiratory-phasic component of GG activity | effect on REM sleep ([4]; in vivo): inhibit REM sleep

COc1cc2nc(N3CCN(C(=O)c4ccco4)CC3)nc(N)c2cc1OC [prazosin]
HM activity [5]: decreased | hLTF after episodic optogenetic stimulation of A7 neurons [5]: no longer resulted in hLTF

COC(=O)[C@@H]1[C@H]2C[C@H]3c4[nH]c5ccccc5c4CCN3C[C@@H]2CC[C@@H]1O [yohimbine, Yohimbine]
effect on REM sleep [6]: does not disrupt REM sleep | weight gain [6]: does not disrupt REM sleep or cause weight gain | baseline HM activity ([2]; systemic yohimbine 0.5-1.0 mg/kg i.v., cholinergic-induced REM sleep, n=7, P<0.01): rise of baseline HM activity above the control level | obstructive apnea-induced hLTF ([2]; systemic yohimbine 0.5-1.0 mg/kg i.v., cholinergic-induced REM sleep, up to 20 min after episodic obstructive apnea): potently reversed the blunting of obstructive apnea-induced hLTF | dose that effectively rescued first- and second-line motor defenses against OSA under REM sleep ([1]; i.v., rats, REM sleep): > 0.25 mg/kg | baseline HM activity ([7]; focal injection at bilateral A7 and A5 regions (50 nl at 2.5 mM per site), n=5, P<0.01): significant increase of baseline HM activity | hLTF during obstructive apnea episodes and up to 20 min afterwards ([7]; focal injection at bilateral A7 and A5 regions, P<0.05): enhancement of hLTF | baseline hypoglossal amplitude before episodic airway occlusion [7, 9]: augmented baseline hypoglossal amplitude | hypoglossal amplitude during first and last airway occlusion episodes and 5 and 20 min after [7, 9]: facilitated hypoglossal amplitude
